Data published in the supplement of paper PMC10307832.

What was measured:
Assay in all cases: relative viability (nuclei count vs DMSO), 5 days (fraction); higher = more cells survive
Dinaciclib + Bortezomib = compound: CCc1cnn2c(NCc3ccc[n+]([O-])c3)cc(N3CCCC[C@H]3CCO)nc12 [Dinaciclib] + CC(C)C[C@H](NC(=O)[C@H](Cc1ccccc1)NC(=O)c1cnccn1)B(O)O [Bortezomib] (partner 0.002 µM)
How it was run: (§1)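 Values are medians from duplicate plates. Each reflects relative viability, defined as the nuclei count of treated wells over that of vehicle wells. Lung cancer cell lines in 1536-well plates were pin-tool dosed one day after seeding with one drug alone or with a fixed anchor-drug dose plus five library-drug doses (not always all listed) in √10 steps, then fixed, stained and imaged at 4× after 5 days.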

Dinaciclib + Linsitinib = compound: CCc1cnn2c(NCc3ccc[n+]([O-])c3)cc(N3CCCC[C@H]3CCO)nc12 [Dinaciclib] + C[C@]1(O)C[C@@H](c2nc(-c3ccc4ccc(-c5ccccc5)nc4c3)c3c(N)nccn32)C1 [Linsitinib] (partner 1 µM)
How it was run: as §1

Dinaciclib + Phenformin = compound: CCc1cnn2c(NCc3ccc[n+]([O-])c3)cc(N3CCCC[C@H]3CCO)nc12 [Dinaciclib] + N=C(N)NC(=N)NCCc1ccccc1 [Phenformin] (partner 250 µM)
How it was run: as §1

Dinaciclib + AZD7762 = compound: CCc1cnn2c(NCc3ccc[n+]([O-])c3)cc(N3CCCC[C@H]3CCO)nc12 [Dinaciclib] + NC(=O)Nc1cc(-c2cccc(F)c2)sc1C(=O)N[C@H]1CCCNC1 [AZD7762] (partner 0.2 µM)
How it was run: as §1

Dinaciclib + Decitabine = compound: CCc1cnn2c(NCc3ccc[n+]([O-])c3)cc(N3CCCC[C@H]3CCO)nc12 [Dinaciclib] + Nc1ncn([C@H]2C[C@H](O)[C@@H](CO)O2)c(=O)n1 [Decitabine] (partner 2 µM)
How it was run: as §1

Cell Line	relative viability (Dinaciclib + Bortezomib; first compound 0.009487 µM)	relative viability (Dinaciclib + Bortezomib; first compound 0.03 µM)	relative viability (Dinaciclib + Bortezomib; first compound 0.09487 µM)	relative viability (Dinaciclib + Bortezomib; first compound 0.3 µM)	relative viability (Dinaciclib + Linsitinib; first compound 0.009487 µM)	relative viability (Dinaciclib + Linsitinib; first compound 0.03 µM)	relative viability (Dinaciclib + Linsitinib; first compound 0.09487 µM)	relative viability (Dinaciclib + Linsitinib; first compound 0.3 µM)	relative viability (Dinaciclib + Phenformin; first compound 0.009487 µM)	relative viability (Dinaciclib + Phenformin; first compound 0.03 µM)	relative viability (Dinaciclib + Phenformin; first compound 0.09487 µM)	relative viability (Dinaciclib + Phenformin; first compound 0.3 µM)	relative viability (Dinaciclib + AZD7762; first compound 0.009487 µM)	relative viability (Dinaciclib + AZD7762; first compound 0.03 µM)	relative viability (Dinaciclib + AZD7762; first compound 0.09487 µM)	relative viability (Dinaciclib + AZD7762; first compound 0.3 µM)	relative viability (Dinaciclib + Decitabine; first compound 0.009487 µM)	relative viability (Dinaciclib + Decitabine; first compound 0.03 µM)	relative viability (Dinaciclib + Decitabine; first compound 0.09487 µM)	relative viability (Dinaciclib + Decitabine; first compound 0.3 µM)
201T	1.15	0.718	0.321	0.281	1.11	1	0.362	0.368	0.418	0.415	0.257	0.238	0.79	0.844	0.252	0.228	0.943	0.767	0.168	0.209
A549					0.561	0.165	0.0454	0.0453	0.174	0.0204	0.035	0.0274					0.293	0.205	0.0304	0.0308
A-427	0.969	0.487	0.0789	0.0623	1.09	0.512	0.0865	0.0756	0.328	0.094	0.0857	0.0889	0.75	0.161	0.117	0.102	0.508	0.153	0.119	0.116
ABC-1	0.231	0.179	0.167	0.157	0.665	0.278	0.166	0.126	0.209	0.157	0.13	0.132	0.87	0.642	0.189	0.178	0.963	0.338	0.297	0.237
BEN	0.817	0.497	0.159	0.247	1.01	0.68	0.216	0.21	0.235	0.217	0.174	0.209	0.894	0.566	0.217	0.287	0.88	0.572	0.245	0.313
CAL-12T	0.484	0.203	0.142	0.127	0.452	0.175	0.112	0.145	0.188	0.103	0.107	0.097	0.565	0.187	0.14	0.183				
COR-L23	0.646	0.0952	0.0792	0.0558	0.736	0.0901	0.0662	0.0681	0.296	0.0764	0.0763	0.069					0.388	0.114	0.0933	0.0952
COR-L 105	0.61	0.192	0.219	0.212	0.55	0.239	0.245	0.249	0.384	0.217	0.208	0.201					0.618	0.408	0.304	0.278
ChaGo-K-1	0.637	0.222	0.178	0.187					0.414	0.17	0.125	0.137	0.904	0.389	0.131	0.117	0.531	0.287	0.138	0.128
EKVX	1.02	0.451	0.109	0.149	0.961	0.51	0.0946	0.137	0.239	0.218	0.162	0.091	0.756	0.436	0.127	0.101	0.388	0.196	0.136	0.123
EMC-BAC-2	0.978	0.779	0.137	0.148	0.868	0.235	0.14	0.161	0.472	0.199	0.13	0.166	0.935	0.657	0.22	0.237	0.991	0.26	0.22	0.24
EPLC-272H	0.89	0.57	0.0541	0.0535	1.29	0.665	0.33	0.0559	0.344	0.122	0.0306	0.0277	0.444	0.0986	0.0404	0.0369	0.36	0.088	0.0389	0.0501
H3255	0.734	0.227	0.15	0.169	1.09	0.493	0.177	0.186	0.333	0.305	0.315	0.28	1.04	0.62	0.209	0.208	0.642	0.237	0.157	0.147
HARA	0.888	0.0756	0.0605	0.0587	0.758	0.0716	0.0363	0.038	0.518	0.129	0.0472	0.0313	0.349	0.116	0.127	0.123	0.437	0.205	0.135	0.101
HCC-15	0.628	0.106	0.0945	0.0993	0.76	0.171	0.113	0.101	0.352	0.115	0.107	0.103	1.18	0.88	0.113	0.0634	0.521	0.139	0.13	0.129
HCC-44	0.883	0.115	0.106	0.102	0.461	0.119	0.122	0.103	0.138	0.105	0.0633	0.0778	0.999	1.05	0.351	0.327	0.804	0.406	0.344	0.317
HCC-78	0.61	0.169	0.133	0.122	0.556	0.348	0.116	0.14	0.744	0.332	0.17	0.165	0.941	0.637	0.226	0.209	0.612	0.32	0.206	0.205
HCC-366	0.779	0.0262	0.0219	0.0175	0.543	0.0298	0.0149	0.0167	0.593	0.137	0.03	0.0292	0.406	0.0244	0.0268	0.0232	0.237	0.133	0.0321	0.0394
HCC-827	0.986	0.746	0.213	0.178	0.951	0.747	0.181	0.147	0.385	0.339	0.121	0.123	0.243	0.162	0.105	0.143	0.351	0.131	0.12	0.137

Cell Line	relative viability (Dinaciclib + Bortezomib; first compound 0.009487 µM)	relative viability (Dinaciclib + Bortezomib; first compound 0.03 µM)	relative viability (Dinaciclib + Bortezomib; first compound 0.09487 µM)	relative viability (Dinaciclib + Bortezomib; first compound 0.3 µM)	relative viability (Dinaciclib + Linsitinib; first compound 0.009487 µM)	relative viability (Dinaciclib + Linsitinib; first compound 0.03 µM)	relative viability (Dinaciclib + Linsitinib; first compound 0.09487 µM)	relative viability (Dinaciclib + Linsitinib; first compound 0.3 µM)	relative viability (Dinaciclib + Phenformin; first compound 0.009487 µM)	relative viability (Dinaciclib + Phenformin; first compound 0.03 µM)	relative viability (Dinaciclib + Phenformin; first compound 0.09487 µM)	relative viability (Dinaciclib + Phenformin; first compound 0.3 µM)	relative viability (Dinaciclib + AZD7762; first compound 0.009487 µM)	relative viability (Dinaciclib + AZD7762; first compound 0.03 µM)	relative viability (Dinaciclib + AZD7762; first compound 0.09487 µM)	relative viability (Dinaciclib + AZD7762; first compound 0.3 µM)	relative viability (Dinaciclib + Decitabine; first compound 0.009487 µM)	relative viability (Dinaciclib + Decitabine; first compound 0.03 µM)	relative viability (Dinaciclib + Decitabine; first compound 0.09487 µM)	relative viability (Dinaciclib + Decitabine; first compound 0.3 µM)
IA-LM	0.72	0.0186	0.019	0.014	0.664	0.27	0.028	0.0252												
LK-2					0.523	0.127	0.159	0.117	0.274	0.142	0.156	0.125	0.448	0.116	0.0518	0.0532	0.27	0.119	0.0855	0.0805
NCI-H358					0.552	0.149	0.185	0.176	0.268	0.078	0.0729	0.0856	0.548	0.16	0.151	0.188	0.157	0.0817	0.075	0.0916
NCI-H520	0.23	0.105	0.103	0.14	0.615	0.128	0.129	0.177	0.476	0.203	0.167	0.166					0.47	0.131	0.155	0.168
NCI-H522									0.598	0.5	0.341	0.339	0.899	0.991	0.359	0.211	0.688	0.65	0.347	0.326
NCI-H661	0.774	0.155	0.167	0.186	0.452	0.184	0.144	0.2	0.192	0.209	0.185	0.185					0.472	0.181	0.158	0.196
NCI-H1395					1.56	0.249	0.297	0.277	0.453	0.306	0.301	0.248	0.324	0.31	0.276	0.29	0.649	0.286	0.286	0.251
NCI-H1650	0.172	0.178	0.158	0.142					0.262	0.139	0.151	0.126					0.472	0.258	0.135	0.12
NCI-H1793					0.818	0.187	0.119	0.128	0.374	0.235	0.115	0.119	0.83	0.144	0.156	0.121	0.488	0.206	0.127	0.149
NCI-H1944					1.36	0.613	0.192	0.225	0.184	0.117	0.121	0.13	0.745	0.0989	0.128	0.135	0.44	0.199	0.137	0.156
NCI-H2009	0.88	0.101	0.069	0.0948	1.12	0.283	0.105	0.104	0.463	0.159	0.11	0.105					0.41	0.294	0.081	0.0958
NCI-H2023	1	0.066	0.0634	0.0575	0.442	0.0999	0.0724	0.0763	0.384	0.0797	0.0696	0.0629					0.157	0.0607	0.0544	0.0524
NCI-H2170									0.415	0.133	0.119	0.152	0.705	0.122	0.108	0.128	0.471	0.212	0.141	0.146
NCI-H2228	0.934	0.0992	0.119	0.102	0.715	0.466	0.109	0.13	0.256	0.11	0.0988	0.103								
SK-LU-1	1.09	0.17	0.188	0.193	0.859	0.218	0.165	0.221	0.394	0.11	0.133	0.129					0.64	0.234	0.211	0.227
SK-MES-1					1.08	0.493	0.168	0.164	0.533	0.171	0.147	0.153					0.362	0.157	0.156	0.166
SW 900									0.612	0.141	0.0751	0.101	0.705	0.405	0.179	0.148	0.408	0.325	0.182	0.151
SW 1573	0.777	0.104	0.0824	0.0954	0.679	0.109	0.0988	0.0866	0.303	0.0685	0.077	0.0659					0.314	0.0932	0.065	0.0758
UMC-11	0.196	0.107	0.108	0.131	0.282	0.167	0.169	0.168	0.214	0.197	0.192	0.185					0.531	0.197	0.2	0.169
